In the supplement of paper PMC11208160:

experiment: recombinant UMI read abundance after kanamycin selection (control-corrected) (log10(CPM+1)); higher = more efficient recombination; extreme values may be limits of the assay; sequences stand for … in AGTGCAGAGAAAATCGGCCAGTTTTCTCTGCCTGCAGTCCGCATGCCGTGGGACCCCTTGGGTTCTAACCTGTTGCCTAGATTTATGCAGCGGACTGCCTTTCTCCCAAAGTGATAAACCGG…AGGTTGGTTTCACT; site = the 11-nt donor
Procedure, shortened: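 Under IPTG (0.07 mM) plus kanamycin, or without selection, Escherichia coli carrying a UMI-tagged donor and donor-binding-loop pair library and a target plasmid for the IS621 bridge recombinase were plated in two replicates. Recombinant UMIs were PCR-amplified across the donor–target junction and sequenced. Counts were converted to CPM, averaged over replicates, scaled by control-derived factors and reported as log10(CPM+1).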
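Also: IS621 bridge recombinase in Escherichia coli cells against a fixed T5 target plasmid.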

Sequence	recombinant UMI read abundance (log10)
GTGCTTGCATGGACCGGTTTTCCCGGTAATCCGTATTTGGT (site GTGCATGCTAC)	0.0165
GTGCTTGCATGGACCGGTTTTCCCGGTAATCCGTATTTGGT (site GTGCCTGCTAC)	0.269
GTGCTTGCATGGACCGGTTTTCCCGGTAATCCGTATTTGGT (site GTGCGTGCTAC)	0.0221
GTGCTTGCATGGACCGGTTTTCCCGGTAATCCGTATTTGGT (site GTGCTTGCTAC)	1.07
GTGGAAACATGGACCGGTTTTCCCGGTAATCCGTATTTGCA (site ATGGAAACTTG)	1.42
GTGGAAACATGGACCGGTTTTCCCGGTAATCCGTATTTGCA (site CTGGAAACTTG)	1.56
GTGGAAACATGGACCGGTTTTCCCGGTAATCCGTATTTGCA (site GTGGAAACTTG)	2.37
GTGGAAACATGGACCGGTTTTCCCGGTAATCCGTATTTGCA (site TTGGAAACTTG)	2.14
GTGGAAGCATGGACCGGTTTTCCCGGTAATCCGTATTTGTG (site GTGGAAGCTCA)	2.35
GTGGAAGCATGGACCGGTTTTCCCGGTAATCCGTATTTGTG (site GTGGACGCTCA)	0.582
GTGGAAGCATGGACCGGTTTTCCCGGTAATCCGTATTTGTG (site GTGGAGGCTCA)	1.53
GTGGAAGCATGGACCGGTTTTCCCGGTAATCCGTATTTGTG (site GTGGATGCTCA)	0.605
GTGGAGCCATGGACCGGTTTTCCCGGTAATCCGTATTTGTT (site GTGGAGCCTAA)	0.012
GTGGAGGCATGGACCGGTTTTCCCGGTAATCCGTATTTGTT (site GTGGAGGCTAA)	1.58
GTGGAGGCATGGACCGGTTTTCCCGGTAATCCGTATTTGTT (site GTGGAGGCTCA)	0.524
GTGGAGGCATGGACCGGTTTTCCCGGTAATCCGTATTTGTT (site GTGGAGGCTGA)	2.66
GTGGAGGCATGGACCGGTTTTCCCGGTAATCCGTATTTGTT (site GTGGAGGCTTA)	0.938
GTGGATGCATGGACCGGTTTTCCCGGTAATCCGTATTTGGT (site GTGAATGCTAC)	2.1
GTGGATGCATGGACCGGTTTTCCCGGTAATCCGTATTTGGT (site GTGCATGCTAC)	0.00775
GTGGATGCATGGACCGGTTTTCCCGGTAATCCGTATTTGGT (site GTGGATGCTAC)	2.2
GTGGATGCATGGACCGGTTTTCCCGGTAATCCGTATTTGGT (site GTGTATGCTAC)	1.03
GTGGCGCCATGGACCGGTTTTCCCGGTAATCCGTATTTGTA (site GTGGCGCCTTA)	0.00916
GTGGCTCCATGGACCGGTTTTCCCGGTAATCCGTATTTGTT (site GTGGCTCCTAA)	0.00981
GTGGGTACATGGACCGGTTTTCCCGGTAATCCGTATTTGAC (site GTAGGTACTGT)	2.16
GTGGGTACATGGACCGGTTTTCCCGGTAATCCGTATTTGAC (site GTCGGTACTGT)	0

Sequence	recombinant UMI read abundance (log10)
GTGGGTACATGGACCGGTTTTCCCGGTAATCCGTATTTGAC (site GTGGGTACTGT)	2.91
GTGGGTACATGGACCGGTTTTCCCGGTAATCCGTATTTGAC (site GTTGGTACTGT)	2.72
GTGGGTACATGGACCGGTTTTCCCGGTAATCCGTATTTGTT (site GTGGGTACTAA)	1.15
GTGGTCGCATGGACCGGTTTTCCCGGTAATCCGTATTTGGC (site GTGGTCGCTGC)	2.91
GTGGTGGCATGGACCGGTTTTCCCGGTAATCCGTATTTGTG (site GTGGAGGCTCA)	0.789
GTGGTGGCATGGACCGGTTTTCCCGGTAATCCGTATTTGTG (site GTGGCGGCTCA)	0.0357
GTGGTGGCATGGACCGGTTTTCCCGGTAATCCGTATTTGTG (site GTGGGGGCTCA)	0.0222
GTGGTGGCATGGACCGGTTTTCCCGGTAATCCGTATTTGTG (site GTGGTGGCTCA)	0.992
GTGTCCGCATGGACCGGTTTTCCCGGTAATCCGTATTTGGC (site GTGTCCGCTGC)	2.26
GTGTGGGCATGGACCGGTTTTCCCGGTAATCCGTATTTGAG (site GTGTGGGCTCT)	1.21
GTGTTACCATGGACCGGTTTTCCCGGTAATCCGTATTTGGT (site GTGTTACCTAC)	0
GTGTTATCATGGACCGGTTTTCCCGGTAATCCGTATTTGCT (site GTGTTATCTAG)	2.87
GTTACACCATGGACCGGTTTTCCCGGTAATCCGTATTTGGC (site GTTACACCTGC)	0
GTTAGAACATGGACCGGTTTTCCCGGTAATCCGTATTTGAC (site GTTAGAACTGA)	0.0146
GTTAGAACATGGACCGGTTTTCCCGGTAATCCGTATTTGAC (site GTTAGAACTGC)	0.0153
GTTAGAACATGGACCGGTTTTCCCGGTAATCCGTATTTGAC (site GTTAGAACTGG)	0
GTTAGAACATGGACCGGTTTTCCCGGTAATCCGTATTTGAC (site GTTAGAACTGT)	1.89
GTTAGAACATGGACCGGTTTTCCCGGTAATCCGTATTTGGA (site GTTAGAACTAC)	0.00435
GTTAGAACATGGACCGGTTTTCCCGGTAATCCGTATTTGGA (site GTTAGAACTCC)	0.0329
GTTAGAACATGGACCGGTTTTCCCGGTAATCCGTATTTGGA (site GTTAGAACTGC)	0
GTTAGAACATGGACCGGTTTTCCCGGTAATCCGTATTTGGA (site GTTAGAACTTC)	0.178
GTTAGAGCATGGACCGGTTTTCCCGGTAATCCGTATTTGTG (site GTTAGAGCTCA)	1.74
GTTAGGACATGGACCGGTTTTCCCGGTAATCCGTATTTGAG (site GTTAGGACTCT)	1.83
GTTATCCCATGGACCGGTTTTCCCGGTAATCCGTATTTGGC (site GTTATCCCTGC)	0
GTTCAAGCATGGACCGGTTTTCCCGGTAATCCGTATTTGCA (site GTTCAAGCTTG)	1.62

Sequence	recombinant UMI read abundance (log10)
GTTCAAGCATGGACCGGTTTTCCCGGTAATCCGTATTTGCA (site GTTCCAGCTTG)	0
GTTCAAGCATGGACCGGTTTTCCCGGTAATCCGTATTTGCA (site GTTCGAGCTTG)	0
GTTCAAGCATGGACCGGTTTTCCCGGTAATCCGTATTTGCA (site GTTCTAGCTTG)	0
GTTCGAGCATGGACCGGTTTTCCCGGTAATCCGTATTTGAT (site GTTCGAGCTAT)	1.75
GTTCGATCATGGACCGGTTTTCCCGGTAATCCGTATTTGCA (site GTTCGAACTTG)	0
GTTCGATCATGGACCGGTTTTCCCGGTAATCCGTATTTGCA (site GTTCGACCTTG)	0
GTTCGATCATGGACCGGTTTTCCCGGTAATCCGTATTTGCA (site GTTCGAGCTTG)	0.00436
GTTCGATCATGGACCGGTTTTCCCGGTAATCCGTATTTGCA (site GTTCGATCTTG)	2.08
GTTCTCCCATGGACCGGTTTTCCCGGTAATCCGTATTTGCG (site GTTCTCCCTCG)	0.002
GTTGACACATGGACCGGTTTTCCCGGTAATCCGTATTTGAA (site GTTGACACTTT)	0.918
GTTGACACATGGACCGGTTTTCCCGGTAATCCGTATTTGGG (site GTTGACACTCC)	0.371
GTTGAGCCATGGACCGGTTTTCCCGGTAATCCGTATTTGTG (site GTTGAGCCTCA)	0.033
GTTGAGGCATGGACCGGTTTTCCCGGTAATCCGTATTTGTG (site GTAGAGGCTCA)	1.5
GTTGAGGCATGGACCGGTTTTCCCGGTAATCCGTATTTGTG (site GTCGAGGCTCA)	0.879
GTTGAGGCATGGACCGGTTTTCCCGGTAATCCGTATTTGTG (site GTGGAGGCTCA)	0.355
GTTGAGGCATGGACCGGTTTTCCCGGTAATCCGTATTTGTG (site GTTGAGGCTCA)	1.07
GTTGATCCATGGACCGGTTTTCCCGGTAATCCGTATTTGGT (site GTTGATCCTAC)	0.00442
GTTGATCCATGGACCGGTTTTCCCGGTAATCCGTATTTGGT (site GTTGCTCCTAC)	0.0151
GTTGATCCATGGACCGGTTTTCCCGGTAATCCGTATTTGGT (site GTTGGTCCTAC)	0.0158
GTTGATCCATGGACCGGTTTTCCCGGTAATCCGTATTTGGT (site GTTGTTCCTAC)	0.011
GTTGCAACATGGACCGGTTTTCCCGGTAATCCGTATTTGCC (site GTTGCAACTGG)	0
GTTGCCTCATGGACCGGTTTTCCCGGTAATCCGTATTTGGA (site GTTGCCTCTTC)	1.21
GTTGCTCCATGGACCGGTTTTCCCGGTAATCCGTATTTGGT (site GTTGATCCTAC)	0
GTTGCTCCATGGACCGGTTTTCCCGGTAATCCGTATTTGGT (site GTTGCTCCTAC)	0.00908
GTTGCTCCATGGACCGGTTTTCCCGGTAATCCGTATTTGGT (site GTTGGTCCTAC)	0.0466
